Laboratory results taken from US20230085307A1, “PYRIDAZINONE COMPOUND AND HERBICIDE” (NISSAN CHEMICAL CORPORATION, priority 2019, published 2023).

Assays:
blackgrass [1] = experiment: Test Example 5: herbicidal effect by foliage application, plastic box (Table 20, symbol J); assay type: in vivo, blackgrass (Alopecurus myosuroides); conditions: foliage application, AAH 320 g/ha, evaluated three weeks after application
How it was run: (§1)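 Sow seeds spot-wise in sterilized diluvial soil; cover with ~1.5 cm soil. Grow 14 days in greenhouse, 25° C. to 30° C. Spray foliage with emulsion diluted to predetermined amount. Rate effect after 3 weeks.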

blackgrass [2] = experiment: Test Example 4: herbicidal effect by soil treatment (Table 19, symbol J); assay type: in vivo, blackgrass (Alopecurus myosuroides); conditions: amount of applied herbicide 320 g/ha
How it was run: (§2)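 Soil-surface application: an emulsion agent diluted with water to the predetermined dose is sprayed uniformly over seeds lying under roughly 1.5 cm of sterilized diluvial soil. Boxes stay in a greenhouse at 25° C. to 30° C. Three weeks later, each species is graded on previously defined criteria.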

lambsquarters [3] = experiment: Test Example 5: herbicidal effect by foliage application, plastic box (Table 20, symbol O); assay type: in vivo, lambsquarters (Chenopodium album); conditions: foliage application, AAH 320 g/ha, evaluated three weeks after application
How it was run: as §1

velvetleaf [4] = experiment: Test Example 4: herbicidal effect by soil treatment (Table 19, symbol M); assay type: in vivo, velvetleaf (Abutilon theophrasti); conditions: amount of applied herbicide 320 g/ha
How it was run: as §2

redroot pigweed [5] = experiment: Test Example 4: herbicidal effect by soil treatment (Table 19, symbol N); assay type: in vivo, redroot pigweed (Amaranthus retroflexus); conditions: amount of applied herbicide 320 g/ha
How it was run: as §2

Italian ryegrass [6] = experiment: Test Example 5: herbicidal effect by foliage application, plastic box (Table 20, symbol K); assay type: in vivo, Italian ryegrass (Lolium multiflorum); conditions: foliage application, AAH 320 g/ha, evaluated three weeks after application
How it was run: as §1

windgrass [7] = experiment: Test Example 5: herbicidal effect by foliage application, plastic box (Table 20, symbol L); assay type: in vivo, windgrass (Apera spica-venti); conditions: foliage application, AAH 320 g/ha, evaluated three weeks after application
How it was run: as §1

southern crabgrass [8] = experiment: Test Example 5: herbicidal effect by foliage application, plastic box (Table 20, symbol F); assay type: in vivo, southern crabgrass (Digitaria ciliaris); conditions: foliage application, AAH 320 g/ha, evaluated three weeks after application
How it was run: as §1

lambsquarters [9] = experiment: Test Example 4: herbicidal effect by soil treatment (Table 19, symbol O); assay type: in vivo, lambsquarters (Chenopodium album); conditions: amount of applied herbicide 320 g/ha
How it was run: as §2

persian speedwell [10] = experiment: Test Example 4: herbicidal effect by soil treatment (Table 19, symbol R); assay type: in vivo, Persian speedwell (Veronica persica); conditions: amount of applied herbicide 320 g/ha
How it was run: as §2

southern crabgrass [11] = experiment: Test Example 4: herbicidal effect by soil treatment (Table 19, symbol F); assay type: in vivo, southern crabgrass (Digitaria ciliaris); conditions: amount of applied herbicide 320 g/ha
How it was run: as §2

windgrass [12] = experiment: Test Example 4: herbicidal effect by soil treatment (Table 19, symbol L); assay type: in vivo, windgrass (Apera spica-venti); conditions: amount of applied herbicide 320 g/ha
How it was run: as §2

wild oat [13] = experiment: Test Example 5: herbicidal effect by foliage application, plastic box (Table 20, symbol I); assay type: in vivo, wild oat (Avena fatua); conditions: foliage application, AAH 320 g/ha, evaluated three weeks after application
How it was run: as §1

Japanese bulrush = experiment: Test Example 1: herbicidal activity, application before weed generation under submerged conditions (Table 16, symbol B); assay type: in vivo, Japanese bulrush (Schoenoplectus juncoides); conditions: amount of applied herbicide 320 g/ha
How it was run: (§3)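 Alluvial soil was flooded to 4 cm depth, weed seeds were sown mixed and 2.5-leaf rice seedlings were transplanted. On sowing day, the compound's emulsion, diluted in water to a set dose, was applied to the water surface. Plants grew at 25–30 °C and were scored 0–5 after three weeks.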

barnyard grass [14] = experiment: Test Example 4: herbicidal effect by soil treatment (Table 19, symbol H); assay type: in vivo, barnyard grass (Echinochloa crus-galli); conditions: amount of applied herbicide 320 g/ha
How it was run: as §2

green foxtail [15] = experiment: Test Example 4: herbicidal effect by soil treatment (Table 19, symbol G); assay type: in vivo, green foxtail (Setaria viridis); conditions: amount of applied herbicide 320 g/ha
How it was run: as §2

velvetleaf [16] = experiment: Test Example 5: herbicidal effect by foliage application, plastic box (Table 20, symbol M); assay type: in vivo, velvetleaf (Abutilon theophrasti); conditions: foliage application, AAH 320 g/ha, evaluated three weeks after application
How it was run: as §1

wild oat [17] = experiment: Test Example 4: herbicidal effect by soil treatment (Table 19, symbol I); assay type: in vivo, wild oat (Avena fatua); conditions: amount of applied herbicide 320 g/ha
How it was run: as §2

barnyard grass [18] = experiment: Test Example 5: herbicidal effect by foliage application, plastic box (Table 20, symbol H); assay type: in vivo, barnyard grass (Echinochloa crus-galli); conditions: foliage application, AAH 320 g/ha, evaluated three weeks after application
How it was run: as §1

Italian ryegrass [19] = experiment: Test Example 4: herbicidal effect by soil treatment (Table 19, symbol K); assay type: in vivo, Italian ryegrass (Lolium multiflorum); conditions: amount of applied herbicide 320 g/ha
How it was run: as §2

Chinese sprangletop = experiment: Test Example 3: herbicidal effect by foliage application, Wagner pot (Table 18, symbol D); assay type: in vivo, chinese sprangletop (Leptochloa chinensis); conditions: amount of applied herbicide 320 g/ha
How it was run: (§4)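 Plants were sown in alluvial soil held under 0.1–0.5 cm standing water and grown 14 days in a greenhouse at 25–30 °C. An emulsifiable formulation, water-diluted to the set dose, was then sprayed onto the foliage, and effects were scored three weeks later using previously defined criteria.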

rice flat sedge = experiment: Test Example 3: herbicidal effect by foliage application, Wagner pot (Table 18, symbol E); assay type: in vivo, rice flat sedge (Cyperus iria); conditions: amount of applied herbicide 320 g/ha
How it was run: as §4

barnyard grass [20] = experiment: Test Example 3: herbicidal effect by foliage application, Wagner pot (Table 18, symbol H); assay type: in vivo, barnyard grass (Echinochloa crus-galli); conditions: amount of applied herbicide 320 g/ha
How it was run: as §4

chickweed [21] = experiment: Test Example 4: herbicidal effect by soil treatment (Table 19, symbol P); assay type: in vivo, common chickweed (Stellaria media); conditions: amount of applied herbicide 320 g/ha
How it was run: as §2

persian speedwell [22] = experiment: Test Example 5: herbicidal effect by foliage application, plastic box (Table 20, symbol R); assay type: in vivo, Persian speedwell (Veronica persica); conditions: foliage application, AAH 320 g/ha, evaluated three weeks after application
How it was run: as §1

oval-leafed pondweed = experiment: Test Example 1: herbicidal activity, application before weed generation under submerged conditions (Table 16, symbol C); assay type: in vivo, oval-leafed pondweed (Monochoria vaginalis); conditions: amount of applied herbicide 320 g/ha
How it was run: as §3

late watergrass = experiment: Test Example 1: herbicidal activity, application before weed generation under submerged conditions (Table 16, symbol A); assay type: in vivo, late watergrass (Echinochloa oryzicola); conditions: amount of applied herbicide 320 g/ha
How it was run: as §3

chickweed [23] = experiment: Test Example 5: herbicidal effect by foliage application, plastic box (Table 20, symbol P); assay type: in vivo, common chickweed (Stellaria media); conditions: foliage application, AAH 320 g/ha, evaluated three weeks after application
How it was run: as §1

green foxtail [24] = experiment: Test Example 5: herbicidal effect by foliage application, plastic box (Table 20, symbol G); assay type: in vivo, green foxtail (Setaria viridis); conditions: foliage application, AAH 320 g/ha, evaluated three weeks after application
How it was run: as §1

redroot pigweed [25] = experiment: Test Example 5: herbicidal effect by foliage application, plastic box (Table 20, symbol N); assay type: in vivo, redroot pigweed (Amaranthus retroflexus); conditions: foliage application, AAH 320 g/ha, evaluated three weeks after application
How it was run: as §1

COc1ccccc1-c1sc2ccc(C=O)cc2c1-c1c(O)c(C)nn(C)c1=O [2-395]
J: blackgrass, herbicidal effect (criteria 0-5) (blackgrass [1]): 0 (Herbicidal rate of 5% or less (almost no effect)) | herbicidal effect, J: blackgrass (blackgrass [2]): 0 (Herbicidal rate of 5% or less (almost no effect)) | O: lambsquarters, herbicidal effect (criteria 0-5) (lambsquarters [3]): 5 (Herbicidal rate of 90% or more (almost completely withered)) | herbicidal effect, M: velvetleaf (velvetleaf [4]): 0 (Herbicidal rate of 5% or less (almost no effect)) | herbicidal effect, N: redroot pigweed (redroot pigweed [5]): 3 (Herbicidal rate of 40% or more and less than 70%) | K: Italian ryegrass, herbicidal effect (criteria 0-5) (Italian ryegrass [6]): 0 (Herbicidal rate of 5% or less (almost no effect)) | L: windgrass, herbicidal effect (criteria 0-5) (windgrass [7]): 0 (Herbicidal rate of 5% or less (almost no effect)) | F: southern crabgrass, herbicidal effect (criteria 0-5) (southern crabgrass [8]): 3 (Herbicidal rate of 40% or more and less than 70%) | herbicidal effect, O: lambsquarters (lambsquarters [9]): 3 (Herbicidal rate of 40% or more and less than 70%) | herbicidal effect, R: persian speedwell (persian speedwell [10]): 0 (Herbicidal rate of 5% or less (almost no effect)) | herbicidal effect, F: southern crabgrass (southern crabgrass [11]): 0 (Herbicidal rate of 5% or less (almost no effect)) | herbicidal effect, L: windgrass (windgrass [12]): 0 (Herbicidal rate of 5% or less (almost no effect)) | I: wild oat, herbicidal effect (criteria 0-5) (wild oat [13]): 0 (Herbicidal rate of 5% or less (almost no effect)) | Herbicidal effect, B: Japanese bulrush (Japanese bulrush): 2 (Herbicidal rate of 20% or more and less than 40%) | herbicidal effect, H: barnyard grass (barnyard grass [14]): 0 (Herbicidal rate of 5% or less (almost no effect)) | herbicidal effect, G: green foxtail (green foxtail [15]): 0 (Herbicidal rate of 5% or less (almost no effect)) | M: velvetleaf, herbicidal effect (criteria 0-5) (velvetleaf [16]): 5 (Herbicidal rate of 90% or more (almost completely withered)) | herbicidal effect, I: wild oat (wild oat [17]): 0 (Herbicidal rate of 5% or less (almost no effect)) | H: barnyard grass, herbicidal effect (criteria 0-5) (barnyard grass [18]): 3 (Herbicidal rate of 40% or more and less than 70%) | herbicidal effect, K: Italian ryegrass (Italian ryegrass [19]): 0 (Herbicidal rate of 5% or less (almost no effect)) | herbicidal effect on D: Chinese sprangletop (Chinese sprangletop): 3 (Herbicidal rate of 40% or more and less than 70%) | herbicidal effect on E: rice flat sedge (rice flat sedge): 3 (Herbicidal rate of 40% or more and less than 70%) | herbicidal effect on H: barnyard grass (barnyard grass [20]): 3 (Herbicidal rate of 40% or more and less than 70%) | herbicidal effect, P: chickweed (chickweed [21]): 0 (Herbicidal rate of 5% or less (almost no effect)) | R: persian speedwell, herbicidal effect (criteria 0-5) (persian speedwell [22]): 4 (Herbicidal rate of 70% or more and less than 90%) | Herbicidal effect, C: oval-leafed pondweed (oval-leafed pondweed): 0 (Herbicidal rate of 5% or less (almost no effect)) | Herbicidal effect, A: late watergrass (late watergrass): 0 (Herbicidal rate of 5% or less (almost no effect)) | P: chickweed, herbicidal effect (criteria 0-5) (chickweed [23]): 5 (Herbicidal rate of 90% or more (almost completely withered)) | G: green foxtail, herbicidal effect (criteria 0-5) (green foxtail [24]): 4 (Herbicidal rate of 70% or more and less than 90%) | N: redroot pigweed, herbicidal effect (criteria 0-5) (redroot pigweed [25]): 5 (Herbicidal rate of 90% or more (almost completely withered))
